Source: PMC10535268, “Design, Synthesis, and Evaluation of Novel Indole Hybrid Chalcones and Their Antiproliferative and Antioxidant Activity” (Molecules, 2023)
Where “and” joins values, the source holds several entries; their conditions need not be identical. Identical values can stand only once.

How the values were obtained:
MDA-MB-231 = test: MTT antiproliferative assay, MDA-MB-231; format: cell-based, human; conditions: MDA-MB-231, 72 h incubation, mean ± SD of three independent experiments
MCF-7 = test: MTT antiproliferative assay, MCF-7; format: cell-based, human; conditions: MCF-7, 72 h incubation, mean ± SD of three independent experiments
Hela = test: MTT antiproliferative assay, HeLa; format: cell-based, human; conditions: 72 h incubation, mean ± SD of three independent experiments
Experimental: Table 2 IC50 (μM) ± SD of tested compounds in different cell lines after 72 h incubation. | column: Cell Line, IC50 (µM) ± SD / Hela

Jurkat = test: MTT antiproliferative assay, Jurkat; format: cell-based, human; conditions: 72 h incubation, mean ± SD of three independent experiments
HCT116 = test: MTT antiproliferative assay, HCT116; format: cell-based, human; conditions: HCT116, 72 h incubation, mean ± SD of three independent experiments
MCF-10A = test: MTT cytotoxicity assay, non-cancer MCF-10A; format: cell-based, human; conditions: 72 h incubation, mean ± SD of three independent experiments
[1] = Ferric reducing antioxidant power (FRAP); conditions: sample 1 mM, 30 min, gallic acid equivalents, mean (±SD), triplicate
Text: (§1) Table 3 Antioxidant activity.

[2] = DPPH radical scavenging activity; conditions: sample 1 mM; for DPPH: 30 min, gallic acid equivalents, mean (±SD), triplicate
[3] = ABTS radical scavenging activity; conditions: sample 1 mM, 30 min, gallic acid equivalents, mean (±SD), triplicate
Text: as §1

IC50 (MDA-MB-231)	IC50 (MCF-7)	IC50 (Hela)	IC50 (Jurkat)	IC50 (HCT116)	IC50 (MDA-MB-231; Homo sapiens)	IC50 (MCF-7; Homo sapiens, MCF7, 72 h)	IC50 (Hela; Homo sapiens, HeLa, 72 h)	IC50 (Jurkat; Homo sapiens)	IC50 (HCT116; Homo sapiens, HCT-116, 72 h)	SMILES	IC50 (MCF-10A)	FRAP [1]	DPPH [2]	ABTS [3]	IC50 (MCF-10A; Homo sapiens, MCF-10A, 72 h)	DPPH activity [2]
51.4 ± 3.2 µM	37.1 ± 0.4 µM	41.7 ± 0.2 µM	< 8.3 µM and 7.6 µM	31.8 ± 2.1 µM	–	–	–	–	–	O=C(/C=C/c1c[nH]c2ccccc12)c1ccccc1F [11a, (2E)-1-(2″-Fluorophenyl)-3-(1′H-indol-3′-yl)prop-2-en-1-one]	89.1 ± 2.4 µM	62.2 (±9.9) µmol GAE/mmol	20.5 (±4.0) µmol GAE/mmol	150.6 (±4.7) µmol GAE/mmol	–	–
–	–	–	–	–	51.2 ± 4.1 µM	26.2 ± 0.5 µM	50 ± 1.8 µM	40.4 ± 2.1 µM	32.4 ± 1.3 µM	COCC(C)Oc1[nH]c2ccccc2c1/C=C/C(=O)c1ccccc1F (stereo not shown) [11j, (2E)-1-(2-fluorophenyl)-3-{2-[(1-methoxypropan-2-yl)oxy]-1H-indol-3-yl}prop-2-en-1-one]	–	–	–	–	76.5 ± 1.1 µM	–
33.3 ± 0.3 µM	17.1 ± 2.3 µM	34.2 ± 0.1 µM	36.7 ± 4.9 µM	31.7 ± 1.7 µM	–	–	–	–	–	CC(C)Oc1[nH]c2ccccc2c1/C=C/C(=O)c1ccc(F)cc1 [11g, (2E)-1-(4″-Fluorophenyl)-3-(2′-isopropoxy-1′H-indol-3′-yl)prop-2-en-1-one]	41.8 ± 1.5 µM	–	–	–	–	–
–	–	–	–	–	–	–	–	–	–	O=C(O)/C=C/c1ccc(O)cc1 [p -coumaric acid, p-coumaric acid, reference compound]	–	105.2 (±4.2) µmol GAE/mmol	23.0 (±3.1) µmol GAE/mmol	278.8 (±11.1) µmol GAE/mmol	–	–
72.2 ± 5.4 µM	30.3 ± 2.2 µM	75.2 ± 4.1 µM	< 8.3 µM and 8.3 µM	40.1 ± 0.6 µM	–	–	–	–	–	CCOc1[nH]c2ccccc2c1/C=C/C(=O)c1ccccc1F [11e, (2E)-3-(2′-ethoxy-1′H-indol-3′-yl)-1-(2″-fluorophenyl)prop-2-en-1-one]	94 ± 4.6 µM	–	–	–	–	–
21.1 ± 3.9 µM	20 ± 7.9 µM	19.2 ± 5.7 µM	< 8.3 µM and 5.9 µM	37.9 ± 2.7 µM	–	–	–	–	–	COn1cc(/C=C/C(=O)c2ccccc2F)c2ccccc21 [11c, (2E)-1-(2″-Fluorophenyl)-3-(1′-methoxy-1′H-indol-3′-yl)prop-2-en-1-one]	67 ± 2.9 µM	27.4 (±0.9) µmol GAE/mmol	23.2 (±11.9) µmol GAE/mmol	41.4 (±6.7) µmol GAE/mmol	–	–
> 100 µM	47.5 ± 4.3 µM	57.9 ± 0.4 µM	32.4 ± 1.2 µM	41.5 ± 1.7 µM	–	–	–	–	–	Cn1cc(/C=C/C(=O)c2ccccc2F)c2ccccc21 [11b, (2E)-1-(2″-Fluorophenyl)-3-(1′-metyl-1′H-indol-3′-yl)prop-2-en-1-one]	> 100 µM	47.2 (±1.0) µmol GAE/mmol	18.9 (±2.3) µmol GAE/mmol	5.7 (±2.7) µmol GAE/mmol	–	–
95.5 ± 2.7 µM	32 ± 1.2 µM	> 100 µM	11.4 ± 1.9 µM	45.5 ± 2.4 µM	–	–	–	–	–	COc1[nH]c2ccccc2c1/C=C/C(=O)c1ccccc1F [11d, (2E)-1-(2″-Fluorophenyl)-3-(2′-methoxy-1′H-indol-3′-yl)prop-2-en-1-one]	98 ± 1.3 µM	–	–	–	–	–
–	–	–	–	–	–	–	–	–	–	O=C(O)/C=C/c1ccc(O)c(O)c1 [caffeic acid, reference compound]	–	500.0 (±33.5) µmol GAE/mmol	690.7 (±36.6) µmol GAE/mmol	586.0 (±32.8) µmol GAE/mmol	–	690.7 ± 36.6 GAE/mmol

SMILES	IC50 (MDA-MB-231)	IC50 (MCF-7)	IC50 (Hela)	IC50 (Jurkat)	IC50 (HCT116)	IC50 (MDA-MB-231; Homo sapiens)	IC50 (MCF-7; Homo sapiens, MCF7, 72 h)	IC50 (Hela; Homo sapiens, HeLa, 72 h)	IC50 (Jurkat; Homo sapiens)	IC50 (HCT116; Homo sapiens, HCT-116, 72 h)	IC50 (MCF-10A)	FRAP [1]	DPPH [2]	ABTS [3]	IC50 (MCF-10A; Homo sapiens, MCF-10A, 72 h)	DPPH activity [2]
CC(C)COc1[nH]c2ccccc2c1/C=C/C(=O)c1ccc(F)cc1 [11i, (2E)-3-(2′-isobutoxy-1′H-indol-3′-yl)-1-(4″-fluorophenyl)prop-2-en-1-one]	42.9 ± 0.4 µM	30.7 ± 0.6 µM	54.6 ± 3.6 µM	40.1 ± 3.2 µM	33.8 ± 0.1 µM	–	–	–	–	–	93.3 ± 3.4 µM	–	–	–	–	–
CCCCOc1[nH]c2ccccc2c1/C=C/C(=O)c1ccccc1F [11h, (2E)-3-(2′-butoxy-1′H-indol-3′-yl)-1-(2″-fluorophenyl)prop-2-en-1-one]	36.3 ± 2.1 µM	13.8 ± 3.5 µM	48.2 ± 1 µM	35.9 ± 1.8 µM	31 ± 2.9 µM	–	–	–	–	–	65.5 ± 3.7 µM	–	–	–	–	–
